Source: US6469013B2, “Therapeutic compounds” (Parker Hughes Institute, priority 1998, dated 2002)
pIC50: −log10 of the molar value.

How the values were obtained:
[1] = target: T1, human JAK3 (Homo sapiens, UniProt P52333); test: JAK3 immune complex kinase assay (JAK3 immunoprecipitated from KL2 EBV-transformed B cell line); assay type: biochemical; details: JAK3 kinase assay, KL2 cell-derived human JAK3; read-out: IC50
T1 sequence (P52333 1-1124): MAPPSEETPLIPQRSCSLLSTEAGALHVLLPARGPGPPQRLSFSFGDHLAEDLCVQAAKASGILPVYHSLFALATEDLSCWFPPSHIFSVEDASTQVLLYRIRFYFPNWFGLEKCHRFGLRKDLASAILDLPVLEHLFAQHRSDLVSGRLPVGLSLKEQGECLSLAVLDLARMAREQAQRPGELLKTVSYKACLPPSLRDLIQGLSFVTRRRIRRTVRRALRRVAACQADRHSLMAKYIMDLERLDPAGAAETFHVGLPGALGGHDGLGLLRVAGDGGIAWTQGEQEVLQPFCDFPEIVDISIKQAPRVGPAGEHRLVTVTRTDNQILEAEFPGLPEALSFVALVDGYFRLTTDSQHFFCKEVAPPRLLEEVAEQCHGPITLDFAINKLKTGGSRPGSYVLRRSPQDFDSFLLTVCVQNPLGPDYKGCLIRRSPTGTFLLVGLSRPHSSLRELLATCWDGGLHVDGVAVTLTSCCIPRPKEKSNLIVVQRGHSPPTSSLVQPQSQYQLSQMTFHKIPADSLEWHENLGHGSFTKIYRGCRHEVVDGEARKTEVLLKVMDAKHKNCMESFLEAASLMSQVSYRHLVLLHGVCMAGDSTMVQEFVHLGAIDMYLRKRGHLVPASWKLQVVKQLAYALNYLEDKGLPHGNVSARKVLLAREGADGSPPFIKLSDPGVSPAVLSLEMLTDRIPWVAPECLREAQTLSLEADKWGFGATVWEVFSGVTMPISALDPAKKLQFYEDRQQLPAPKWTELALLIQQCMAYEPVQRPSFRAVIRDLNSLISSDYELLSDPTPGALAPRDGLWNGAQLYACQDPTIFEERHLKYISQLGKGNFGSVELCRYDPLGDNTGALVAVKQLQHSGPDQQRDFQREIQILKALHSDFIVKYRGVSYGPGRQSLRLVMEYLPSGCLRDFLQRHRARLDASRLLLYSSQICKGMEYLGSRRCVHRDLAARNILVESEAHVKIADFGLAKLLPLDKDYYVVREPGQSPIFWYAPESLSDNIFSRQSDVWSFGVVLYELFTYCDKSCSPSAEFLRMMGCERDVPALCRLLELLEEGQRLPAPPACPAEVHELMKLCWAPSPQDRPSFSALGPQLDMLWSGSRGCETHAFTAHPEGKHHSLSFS
Experimental: In JAK3 immune complex kinase assays (17, 22), KL-2 EBV-transformed human lymphoblastoid B cells (native JAK3 kinase assays) or insect ovary cells (recombinant JAK3 kinase assays) were lysed with NP-40 lysis buffer (50 mM Tris, pH 8, 150 mM NaCl, 5 mM EDTA, 1% NP-40, 100 μM sodium orthovanadate, 100 μM sodium molybdate, 8 μg/ml aprotinin, 5 μg/ml leupeptin, and 500 μM PMSF) and centrifuged 10 min at 13000× g to remove insoluble material. Samples were immunoprecipitated with antisera prepared against JAK3. The antisera were diluted and immune complexes collected by incubation with 15 μl protein A Sepharose. After 4 washes with NP-40 lysis buffer, the protein A Sepharose beads were washed once in kinase buffer (20 mM MOPS, pH7, 10 mM MgCl2) and resuspended in the same buffer. Reactions were initiated by the addition of 25 μCi [γ^32P] ATP (5000 Ci/mMole) and unlabeled ATP to a final concentration of 5 μM. Reactions were terminated by boiling for 4 min in SDS sample buffer. Samples were run on 9.5% SDS polyacrylamide gels and labeled proteins were detected by autoradiography. Following electrophoresis, kinase gels were dried onto Whatman 3M filter paper and subjected to phosphorimaging on a Molecular Imager (Bio-Rad, Hercules, Calif.) as well as autoradiography on film. For each drug concentration, a kinase activity index (KA) was determined by comparing the kinase activity in phosphorimager units (PIU) to that of the baseline sample. In some experiments, cold kinase assays were performed, as described by (Uckun, F. M., et al., Clin. Can. Res. 4: 901-912, 1998).
We first used immune complex kinase assays to compare the effects of the synthesized dimethoxyquinazoline compounds on the enzymatic activity of human JAK3 immunoprecipitated from the KL2 EBV-transformed human lymphoblastoid B cell line.

[2] = test system: BT20 (Breast Cancer); test: Methylcellulose clonogenic assay; assay type: cell-based
Experimental: (§1) The antileukemic activity of compound 6 against clonogenic tumor cells was examined using a methylcellulose colony assay system (Uckun, F. M., et al., J. Exp. Med. 163: 347-368, 1986; Messinger, Y., et al., Clin Cancer Res. 4: 165-70, 1998). In brief, cells (10^5/ml in RPMI-10% FBS) were treated overnight at 37° C. with compound 6 at varying concentrations. After treatment, cells were washed twice, plated at 10^4 or 10^5 cells/ml in RPMI-10% FMS-0.9% methylcellulose in Petri dishes, and cultured for 7 days at 37° C. in a humidified 5% CO2 incubator. Subsequently, leukemic cell (or tumor cell) colonies were enumerated using an inverted phase-contrast microscope. The percent inhibition of colony formation was calculated using the following formula:
(§2) % Inhibition=1−mean number of colonies in test culture×100 mean number of colonies in control culture

[3] = test system: HL-60 (AML); test: Methylcellulose clonogenic assay; assay type: cell-based; details: HL-60, 100 μM
Experimental: as §1, §2

[4] = test system: SQ20B (Squamous Carcinoma); test: Methylcellulose clonogenic assay; assay type: cell-based
Experimental: as §1, §2

[5] = test system: C57BL/6 recipients; test: Allogeneic islet transplantation (BALB/c islets); assay type: in vivo, mouse
Experimental: Islets were hand-picked 3-4 times under the dissecting scope before islets were free of exocrine tissue, vessels, lymph nodes and ducts and ready for transplantation.
Four hundred islets were placed in Hamilton syringe and transplanted under the left kidney capsule of each diabetic recipient mouse. Recipients were rendered diabetic with a single i.p. dose of streptozotocin (200 mg/kg; Sigma, St. Louis, Mo.) 1 wk before transplantation. Blood glucose level was measured by One Touch Profile glucose monitor system (Lifescan, Milpitas, Calif.). […] Allograft function was monitored by serial blood glucose measurements. […] All injections were given i.p.
Kidneys bearing grafts were removed, fixed in 10% formalin and embedded in paraffin. Serial sections of graft area were cut and stained with hematoxylin and eosin. For insulin staining, sections were stained by immunoperoxidase method using 1:100 dilution of polyclonal guinea pig anti-insulin antibody (Gpx Insulin, Dako, Carpinteria, Calif.) and 1:100 dilution of secondary antibody conjugated to horse radish peroxidase (Guinea Pig Immunoglobulins HRP, Dako, Carpinteria, Calif.). Sections were briefly counterstained with hematoxylin and mounted for light microscopic examination.

COc1cc2ncnc(Nc3ccc(O)cc3)c2cc1OC [WHI-P131, 4-(4′-hydroxyl-phenyl)-amino-6,7-dimethoxyquinazoline]
pIC50 [1]: 5.04 | Mean No. of Colonies/10^5 Cells ([2]; BT20, 10 μM): 3298 (2940, 3656) | Mean No. of Colonies/10^5 Cells ([2]; BT20, 100 μM): 2190 (1632, 2748) | inhibition at 10 µM ([2]; Homo sapiens, BT-20, BT20, 10 μM): 0% | inhibition at 100 µM ([2]; Homo sapiens, BT-20, BT20, 100 μM): 18.2% | Mean No. of Colonies/10^5 Cells [3]: 1 (1,1) | inhibition at 100 µM ([3]; Homo sapiens): > 99.9% | Mean No. of Colonies/10^5 Cells ([4]; 30 μM): 838 (600, 1076) | inhibition at 30 µM ([4]; Homo sapiens): 0% | islet allograft mean survival time (MST) ([5]; 50 mg/kg daily i.p., controls 14.1±0.9): 24.7±3.4 days | islet allograft mean survival time (MST) ([5]; 75 mg/kg daily i.p.): 25.3±3.8 days
